Values after ≈ are worked out from the molar mass of the structure shown.
Experiments:
Experiment in all cases: ≥ marks a high value that may be exact or a test limit, other limits are often not marked, values filed in µg/mL are converted to µM
[1] = system: Cladosporium herbarum
[2] = system: Pseudomonas corrugata DSM 7228
[3] = system: Pseudomonas syringae pv. tomato DC3000
[4] = system: Clavibacter michiganensis subsp. michiganensis DSM 46294
[5] = system: Alternaria alternata
[6] = system: Xanthomonas vesicatoria DSM 50861
[7] = system: Pectobacterium carotovorum subsp. carotovorum DSM 30168
[8] = system: Pseudomonas syringae pv. syringae DSM 10604
[9] = system: Botrytis cinerea
[10] = system: Escherichia coli MG1655
[11] = system: Staphylococcus aureus MTCC 9542
[12] = system: Pseudomonas aeruginosa ATCC 27853
[13] = system: Vibrio cholerae
[14] = system: Escherichia coli BL21AI
[15] = system: Micrococcus luteus ATCC 10240
[16] = system: Candida albicans NCPF 1467
[17] = system: Staphylococcus aureus NCTC 10788
[18] = system: Escherichia coli NCTC 10418
[19] = system: Escherichia coli KCTC 1682
[20] = system: Bacillus subtilis KCTC 1918
[21] = system: Streptococcus pyogenes KCTC 3096
[22] = system: Staphylococcus aureus KCTC 1621
[23] = system: Salmonella typhimurium KCTC 1926
[24] = system: Pseudomonas aeruginosa KCTC 1637
[25] = system: Burkholderia cepacia J2540
[26] = system: Staphylococcus aureus BCRC 10780
[27] = system: Streptococcus pneumoniae BCRC 10794
[28] = system: Bacillus subtilis IFO 3134
[29] = system: Escherichia coli IFO 12734
[30] = system: Staphylococcus aureus IFO 12732
[31] = system: Pseudomonas aeruginosa IFO 12582
[32] = system: Micrococcus luteus ATCC 9341
[33] = system: Pseudomonas aeruginosa ATCC 9027
[34] = system: Staphylococcus aureus ATCC 6538
[35] = system: Fusarium solani

Work on `CC[C@H](C)[C@H](NC(=O)[C@H](CC(C)C)NC(=O)[C@@H](N)CC(C)C)C(=O)N[C@@H](C)C(=O)N[C@@H](C)C(=O)N[C@@H](Cc1ccccc1)C(=O)N[C@@H](CCCCN)C(=O)N[C@@H](CCCCN)C(=O)N[C@@H](CC(C)C)C(=O)N[C@H](C(=O)N[C@@H](CCCCN)C(=O)N[C@@H](CCCCN)C(N)=O)C(C)C` [LLIAAFKKLVKK] yielded an MIC [1] of at least 72.9 µM, an MIC [2] of 29.2 µM (≈ 40 µg/mL) and an MIC [3] of 29.2 µM (≈ 40 µg/mL). For the same compound, the MIC [4] was 14.6 µM (≈ 20 µg/mL), the MIC [5] was at least 72.9 µM and the MIC [6] was 29.2 µM (≈ 40 µg/mL). For the same compound, the MIC [7] was 29.2 µM (≈ 40 µg/mL), the MIC [8] was 29.2 µM (≈ 40 µg/mL) and the MIC [9] was at least 72.9 µM.

Compound `CC[C@H](C)[C@@H]1NC(=O)[C@H](CCCCN)NC(=O)[C@@H](NC(=O)[C@H](CC(C)C)NC(=O)[C@@H](NC(=O)[C@H](CCC(N)=O)NC(=O)[C@@H]2CCCN2C(=O)[C@H](CC(C)C)NC(=O)[C@H](Cc2ccccc2)NC(=O)[C@H](CC(N)=O)NC(=O)[C@H](C)NC(=O)[C@H](C)NC(=O)[C@H](CC(C)C)NC(=O)CNC(=O)[C@H](C)N)[C@@H](C)CC)CSSC[C@@H](C(N)=O)NC(=O)[C@H](CCCCN)NC(=O)[C@H](CCCN=C(N)N)NC(=O)[C@H](C)NC1=O` [AGLAANFLPQILCKIARKC] has an MIC [10] of 24.6 µM (≈ 49.9 µg/mL), an MIC [11] of 24.6 µM (≈ 49.9 µg/mL) and an MIC [12] of over 49.2 µM. For the same compound, the MIC [13] was 12.3 µM (≈ 25 µg/mL).

Compound `CC[C@H](C)[C@H](NC(=O)[C@H](CCCN=C(N)N)NC(=O)[C@H](CCCN=C(N)N)NC(=O)[C@@H]1CCCN1C(=O)[C@@H]1CCCN1C(=O)[C@H](Cc1cnc[nH]1)NC(=O)[C@@H]1CCCN1C(=O)[C@H](CCCN=C(N)N)NC(=O)[C@@H]1CCCN1C(=O)[C@H](CC(C)C)NC(=O)[C@H](Cc1ccc(O)cc1)NC(=O)[C@@H]1CCCN1C(=O)[C@@H]1CCCN1C(=O)[C@H](CCCCN)NC(=O)[C@H](CC(=O)O)NC(=O)[C@@H](N)C(C)C)C(=O)N[C@@H](Cc1ccc(O)cc1)C(=O)N[C@@H](CC(N)=O)C(=O)N[C@@H](CC(N)=O)C(=O)N[C@@H](CCCN=C(N)N)C(=O)O` [VDKPPYLPRPHPPRRIYNNR] has an MIC [14] of 25.7 µM (≈ 64 µg/mL) and an MIC [15] of 12.9 µM (≈ 32 µg/mL).

With `CC[C@H](C)[C@H](NC(=O)CNC(=O)[C@H](CO)NC(=O)[C@H](C)NC(=O)[C@@H](NC(=O)[C@H](Cc1cnc[nH]1)NC(=O)[C@@H]1CCCN1C(=O)[C@H](CC(C)C)NC(=O)[C@H](CC(C)C)NC(=O)[C@H](CO)NC(=O)[C@H](CC(C)C)NC(=O)[C@@H](N)Cc1ccccc1)[C@@H](C)CC)C(=O)N[C@@H](C)C(=O)N[C@@H](CO)C(=O)N[C@@H](CC(C)C)C(=O)N[C@H](C(=O)N[C@@H](CO)C(=O)N[C@@H](CCCCN)C(=O)N[C@@H](Cc1ccccc1)C(N)=O)C(C)C` [FLSLLPHIASGIASLVSKF] the MIC [16] was 15 µM (≈ 30 µg/mL), the MIC [17] was 5 µM (≈ 10 µg/mL) and the MIC [18] was at least 200 µM.

Compound `CC[C@H](C)[C@H](NC(=O)[C@H](CCCCN)NC(=O)[C@H](CCCCN)NC(=O)[C@H](Cc1ccccc1)NC(=O)[C@H](CC(C)C)NC(=O)[C@H](CCCCN)NC(=O)[C@H](Cc1c[nH]c2ccccc12)NC(=O)[C@@H](N)CCCCN)C(=O)N[C@@H](CCCCN)C(=O)N[C@@H](Cc1ccccc1)C(=O)N[C@@H](CC(C)C)C(=O)N[C@@H](Cc1cnc[nH]1)C(=O)N[C@@H](CO)C(=O)N[C@@H](C)C(=O)N[C@@H](CCCCN)C(=O)N[C@@H](CCCCN)C(=O)N[C@@H](Cc1ccccc1)C(N)=O` [KWKLFKKIKFLHSAKKF] has an MIC [19] of 6.25 µM (≈ 13.6 µg/mL), an MIC [20] of 1.56 µM (≈ 3.4 µg/mL) and an MIC [21] of 0.78 µM (≈ 1.7 µg/mL). It also gave an MIC [22] of 3.12 µM (≈ 6.8 µg/mL), an MIC [23] of 0.78 µM (≈ 1.7 µg/mL) and an MIC [24] of 1.56 µM (≈ 3.4 µg/mL).

`CC[C@H](C)[C@H](NC(=O)CNC(=O)[C@H](CCCN=C(N)N)NC(=O)[C@H](CC(C)C)NC(=O)[C@H](Cc1ccccc1)NC(=O)[C@H](CC(=O)O)NC(=O)[C@H](CCCCN)NC(=O)[C@@H](NC(=O)[C@H](CCCN=C(N)N)NC(=O)[C@H](CCC(N)=O)NC(=O)[C@@H](NC(=O)[C@@H](NC(=O)[C@H](CCCN=C(N)N)NC(=O)[C@H](CCCCN)NC(=O)[C@@H](N)Cc1ccccc1)[C@@H](C)CC)C(C)C)[C@@H](C)CC)C(=O)NCC(=O)N[C@@H](CCCCN)C(=O)N[C@@H](Cc1ccccc1)C(=O)N[C@@H](CC(C)C)C(=O)N[C@@H](Cc1cnc[nH]1)C(=O)N[C@@H](CO)C(=O)N[C@@H](C)C(=O)N[C@@H](CCCCN)C(=O)N[C@@H](CCCCN)C(=O)N[C@@H](Cc1ccccc1)C(=O)O` [FKRIVQRIKDFLRGIGKFLHSAKKF] was tested, and the MIC [25] was 10.3 µM (≈ 31.3 µg/mL).

Compound `CSCC[C@H](NC(=O)[C@H](C)NC(=O)CNC(=O)[C@H](C)NC(=O)[C@H](Cc1cnc[nH]1)NC(=O)[C@H](Cc1ccccc1)NC(C)=O)C(N)=O` [FHAGAM] has an MIC [26] of at least 158 µM and an MIC [27] of at least 158 µM.

With `CC[C@H](C)[C@H](NC(=O)[C@H](C)NC(=O)[C@@H]1CCCN1C(=O)[C@@H](NC(=O)[C@@H](NC(=O)[C@H](CCCCN)NC(=O)[C@H](C)NC(=O)[C@H](C)NC(=O)[C@@H](NC(=O)[C@H](CCCCN)NC(=O)[C@H](C)NC(=O)[C@H](CC(C)C)NC(=O)[C@@H](NC(=O)CNC(=O)[C@H](Cc1ccccc1)NC(=O)[C@H](CC(C)C)NC(=O)CN)C(C)C)C(C)C)C(C)C)C(C)C)C(=O)N[C@@H](C)C(=O)N[C@@H](CCC(=O)O)C(=O)N[C@@H](Cc1cnc[nH]1)C(=O)N[C@@H](Cc1ccccc1)C(N)=O` [GLFGVLAKVAAKVVPAIAEHF] the MIC [28] was 8 µM (≈ 17.1 µg/mL), the MIC [29] was 16 µM (≈ 34.2 µg/mL) and the MIC [30] was 8 µM (≈ 17.1 µg/mL). For the same compound, the MIC [31] was at least 32 µM.

Compound `CC[C@H](C)[C@H](N)C(=O)N[C@@H](CC(C)C)C(=O)N1CCC[C@H]1C(=O)N[C@@H](Cc1c[nH]c2ccccc12)C(=O)N[C@@H](CCCCN)C(=O)N[C@@H](Cc1c[nH]c2ccccc12)C(=O)N1CCC[C@H]1C(=O)N[C@@H](Cc1c[nH]c2ccccc12)C(=O)N[C@@H](Cc1c[nH]c2ccccc12)C(=O)N1CCC[C@H]1C(=O)N[C@@H](Cc1c[nH]c2ccccc12)C(=O)N[C@@H](CCCNC(=N)N)C(=O)N[C@@H](CCCNC(=N)N)C(=O)O` [ILPWKWPWWPWRR] has an MIC [32] of 1.6 µM (≈ 3.05 µg/mL), an MIC [1] of at least 33.6 µM and an MIC [2] of at least 33.6 µM. The MIC [3] was at least 33.6 µM, the MIC [4] was 0.524 µM (≈ 1 µg/mL) and the MIC [5] was 16.8 µM (≈ 32 µg/mL). For the same compound, the MIC [6] was 1.05 µM (≈ 2 µg/mL), the MIC [33] was over 105 µM and the MIC [7] was at least 33.6 µM. For the same compound, the MIC [34] was 5.24 µM (≈ 10 µg/mL), the MIC [8] was at least 33.6 µM and the MIC [35] was 4.19 µM (≈ 8 µg/mL). It also gave an MIC [9] of 16.8 µM (≈ 32 µg/mL).

Work on `CC[C@H](C)[C@H](NC(=O)[C@H](CCSC)NC(=O)[C@H](CCCCN)NC(=O)CNC(=O)[C@H](C)NC(=O)[C@H](Cc1cnc[nH]1)NC(=O)[C@H](Cc1ccccc1)NC(=O)[C@H](CC(C)C)NC(=O)CNC(=O)[C@H](CCCCN)NC(C)=O)C(=O)N[C@@H](Cc1cnc[nH]1)C(N)=O` [KGLFHAGKMIH] yielded an MIC [26] of at least 80.7 µM and an MIC [27] of at least 80.7 µM.

Reference: DBAASP
